These results are taken from patent US20110262477A1 (priority 2008, published 2011).

One data set concerns S. aureus. The conditions noted are these: individual subunit vaccine antigens; none afforded complete protection; cited from earlier work.
A further data set deals with AdsA. Type of data set: biochemical, S. aureus.
Data set [1] deals with T1, 5′-nucleotidases from rat liver membrane (Rattus norvegicus, UniProt P21588).
T1 sequence (P21588 29-551): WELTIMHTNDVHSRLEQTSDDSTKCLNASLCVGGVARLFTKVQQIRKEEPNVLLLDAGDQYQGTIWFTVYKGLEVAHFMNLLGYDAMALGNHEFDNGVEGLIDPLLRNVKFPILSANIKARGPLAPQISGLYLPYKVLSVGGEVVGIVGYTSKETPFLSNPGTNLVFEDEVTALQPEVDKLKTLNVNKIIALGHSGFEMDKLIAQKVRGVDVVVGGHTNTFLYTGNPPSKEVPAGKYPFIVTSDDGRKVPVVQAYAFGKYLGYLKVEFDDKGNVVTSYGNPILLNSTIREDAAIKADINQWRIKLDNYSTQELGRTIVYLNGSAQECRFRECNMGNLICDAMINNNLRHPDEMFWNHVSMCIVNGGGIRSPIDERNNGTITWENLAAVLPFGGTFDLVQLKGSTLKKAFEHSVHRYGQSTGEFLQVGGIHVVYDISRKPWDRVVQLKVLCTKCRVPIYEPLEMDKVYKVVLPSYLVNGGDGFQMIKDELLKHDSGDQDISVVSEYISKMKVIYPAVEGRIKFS
The settings on record: Uchino et al., 1986; cited from earlier work.

In data set [2] the test system is 5′-nucleotidases from snake venom. The settings on record: Uchino et al., 1986; cited from earlier work.
Data set [3] relates to Nc1ncnc2c1ncn2[C@@H]1O[C@H](COP(=O)(O)O)[C@@H](O)[C@H]1O. Kind of data set: purified protein, by the assay type. The conditions noted are these: pH 7.5; 37.0 °C.
Data set [4] relates to adsA mutant staphylococci. Kind of data set: Survival of adsA staphylococci in rat blood with added adenosine (FIG. 17F). The class given is cell-based, S. aureus. The conditions noted are these: addition of 1-100 μM adenosine.
The subject of data set [5] is secreted 5′-nucleotidases from trophozoites of Trichomonas gallinae. The settings on record: Borges et al., 2007; cited from earlier work.
Data set [6] concerns the target T2, 5′-ecto nucleotidase (human homologue of bacterial AdsA) (Homo sapiens, UniProt P21589).
T2 sequence (P21589 27-549): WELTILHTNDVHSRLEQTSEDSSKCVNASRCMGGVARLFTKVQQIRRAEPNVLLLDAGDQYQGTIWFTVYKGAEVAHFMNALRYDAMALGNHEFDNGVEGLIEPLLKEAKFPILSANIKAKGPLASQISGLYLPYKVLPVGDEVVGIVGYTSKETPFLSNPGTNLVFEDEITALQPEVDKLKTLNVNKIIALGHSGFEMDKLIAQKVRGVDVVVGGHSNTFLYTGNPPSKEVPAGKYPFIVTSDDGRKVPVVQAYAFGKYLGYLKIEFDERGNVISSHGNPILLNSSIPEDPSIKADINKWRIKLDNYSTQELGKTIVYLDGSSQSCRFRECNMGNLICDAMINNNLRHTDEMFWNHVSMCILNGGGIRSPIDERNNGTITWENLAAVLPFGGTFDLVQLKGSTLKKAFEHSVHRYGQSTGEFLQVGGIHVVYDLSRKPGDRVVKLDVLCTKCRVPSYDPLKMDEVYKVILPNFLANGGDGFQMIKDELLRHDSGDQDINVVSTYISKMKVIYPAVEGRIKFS
The conditions noted are these: cited from earlier work.

For another data set, the system named is S. aureus Newman. Kind of data set: Eap, Emp vaccination, murine renal abscess model (FIG. 5). The conditions noted are these: for histological lesions: kidneys of immunized mice, PBS mock 4/5, FIG. 5E.

Some results are limits rather than exact numbers.

Take “SdrE: purified S. aureus sortase A substrate surface protein used as subunit vaccine antigen”: in the data set on S. aureus, the “reduction in bacterial load” value is “significant reduction in bacterial load”.

Consider “SdrD: purified S. aureus sortase A substrate surface protein used as subunit vaccine antigen”, for which, in the data set on S. aureus, the “reduction in bacterial load” value is on record as “significant reduction in bacterial load”.

On to `[Cl-].[Cl-].[Zn+2]` [ZnCl2], for which the “inhibition of adenosine synthase activity” value in the data set on AdsA is “completely inhibited”.

Consider `O=S(=O)([O-])[O-].[Cu+2]` [CuSO4], for which the “inhibition of adenosine synthase activity” value in the data set on AdsA is “completely inhibited”.

melanocidins A and B: the “inhibitory activity against 5′-nucleotidases” value in data set [1] and in data set [2] was “potent inhibitory activity” in each case.

As a reminder, the Km is the concentration of substrate that gives half-maximal velocity. “Staphylococcus aureus adenosine synthase A (AdsA, SasH), purified soluble recombinant form AdsA1-400 (from GST-AdsA expressed in Escherichia coli), SEQ ID NO:36 (Staphylococcus aureus subsp. aureus NCTC 8325)”: in data set [3], the Michaelis constant (Km) is 0.044 µM.

Turning to “IsdB: purified S. aureus sortase A substrate surface protein used as subunit vaccine antigen”, the “reduction in bacterial load” value in the data set with S. aureus is given as “significant reduction in bacterial load”.

On to `Nc1ncnc2c1ncn2[C@@H]1O[C@H](CO)[C@@H](O)[C@H]1O` [adenosine], for which, in data set [4], the “survival of adsA mutant staphylococci in blood” value is reported as “dose-dependent increase in the survival”.

`Nc1ncnc2c1ncn2[C@@H]1O[C@H](COP(=O)(O)CP(=O)(O)O)[C@@H](O)[C@H]1O` [AOPCP, α,β-methylene adenosine 5′-diphosphate]: the “inhibition of secreted 5′-nucleotidases” value in data set [5] is reported as “does not inhibit”. Moreover, in [6], the “inhibition of 5′-ecto nucleotidase” value is “inhibitor”.

nucleoticidin: the “inhibitory activity against 5′-nucleotidases” value in [1] and in data set [2] was “potent inhibitory activity” throughout.

B1: Emp: recombinant His-tagged staphylococcal envelope associated protein Emp (SEQ ID NO:2) purified from E. coli, vaccine antigen (protein, listed as Staphylococcus aureus)
chain: MKKKLLVLTMSTLFATQIMNSNHAKASVTESVDKKFVVPESGINKIIPAYDEFKNSPKVNVSNLTDNKNFVASEDKLNKIADSSAASKIVDKNFVVPESKLGNIVPEYKEINNRVNVATNNPASQQVDKHFVAKGPEVNRFITQNKVNHHFITTQTHYKKVITSYKSTHVHKHVNHAKDSINKHFIVKPSESPRYTHPSQSLIIKHHFAVPGYHAHKFVTPGHASIKINHFCVVPQINSFKVIPPYGHNSHRMHVPSFQNNTTATHQNAKVNKAYDYKYFYSYKVVKGVKKYFSFSQSNGYKIGKPSLNIKNVNYQYAVPSYSPTHYVPEFKGSLPAPRV
modifications: His-tag
For B1, the “titers of reactive IgG” value with S. aureus Newman (ELISA IgG titers from vaccinated mice, FIG. 5D) is given as > 64,000. The histological lesions in the data set with S. aureus Newman is 1/5.

B2: Eap: recombinant His-tagged staphylococcal envelope associated protein Eap (SEQ ID NO:4) purified from E. coli, vaccine antigen (protein, listed as Staphylococcus aureus)
chain: MKFKSLITTTLALGVLASTGANFNNNEASAAAKPLDKSSSSLHHGYSKVHVPYAITVNGTSQNILSSLTFNKNQNISYKDLEDRVKSVLKSDRGISDIDLRLSKQAKYTVYFKNGTKKVIDLKAGIYTADLINTSEIKAININVDTKKQVEDKKKDKANYQVPYTITVNGTSQNILSNLTFNKNQNISYKDLEDKVKSVLESNRGITDVDLRLSKQAKYTVNFKNGTKKVIDLKSGIYTANLINSSDIKSININVDTKKHIENKAKRNYQVPYSINLNGTSTNILSNLSFSNKPWTNYKNLTSQIKSVLKHDRGISEQDLKYAKKAYYTVYFKNGGKRILQLNSKNYTANLVHAKDVKRIEITVKTGTKAKADRYVPYTIAVNGTSTPILSDLKFTGDPRVGYKDISKKVKSVLKHDRGIGERELKYAKKATYTVHFKNGTKKVININSNISQLNLLYVQDIKKIDIDVKTGTKAKADSYVPYTIAVNGTSTPILSKLKISNKQLISYKYLNDKVKSVLKSERGISDLDLKFAKQAKYTVYFKNGKKQVVNLKSDIFTPNLFSAKDIKKIDIDVKQYTKSKKNK
modifications: His-tag
As to B2, in the data set with S. aureus Newman, the histological lesions is 1/5.

B3: IsdA: purified S. aureus sortase A substrate surface protein used as subunit vaccine antigen (protein, listed as Staphylococcus sp.)
chain: MTKHYLNSKYQSEQRSSAMKKITMGTASIILGSLVYIGADSQQVNAATEATNATNNQSTQVSQATSQPINFQVQKDGSSEKSHMDDYMQHPGKVIKQNNKYYFQTVLNNASFWKEYKFYNANNQELATTVVNDNKKADTRTINVAVEPGYKSLTTKVHIVVPQINYNHRYTTHLEFEKAIPTLADAAKPNNVKPVQPKPAQPKTPTEQTKPVQPKVEKVKPTVTTTSKVEDNHSTKVVSTDTTKDQTKTQTAHTVKTAQTAQEQNKVQTPVKDVATAKSESNNQAVSDNKSQQTNKVTKHNETPKQASKAKELPKTGLTSVDNFISTVAFATLALLGSLSLLLFKRKESK
Take B3: the “reduction in bacterial load” value in the data set with S. aureus was “significant reduction in bacterial load”.
